The structures appear in SMILES notation.

In experiment [1] the target is T1, COX-2 (Homo sapiens, UniProt P35354).
T1 construct: purchased BioVision Inc. (Mountain View, CA, USA)
T1 sequence (P35354 18-604): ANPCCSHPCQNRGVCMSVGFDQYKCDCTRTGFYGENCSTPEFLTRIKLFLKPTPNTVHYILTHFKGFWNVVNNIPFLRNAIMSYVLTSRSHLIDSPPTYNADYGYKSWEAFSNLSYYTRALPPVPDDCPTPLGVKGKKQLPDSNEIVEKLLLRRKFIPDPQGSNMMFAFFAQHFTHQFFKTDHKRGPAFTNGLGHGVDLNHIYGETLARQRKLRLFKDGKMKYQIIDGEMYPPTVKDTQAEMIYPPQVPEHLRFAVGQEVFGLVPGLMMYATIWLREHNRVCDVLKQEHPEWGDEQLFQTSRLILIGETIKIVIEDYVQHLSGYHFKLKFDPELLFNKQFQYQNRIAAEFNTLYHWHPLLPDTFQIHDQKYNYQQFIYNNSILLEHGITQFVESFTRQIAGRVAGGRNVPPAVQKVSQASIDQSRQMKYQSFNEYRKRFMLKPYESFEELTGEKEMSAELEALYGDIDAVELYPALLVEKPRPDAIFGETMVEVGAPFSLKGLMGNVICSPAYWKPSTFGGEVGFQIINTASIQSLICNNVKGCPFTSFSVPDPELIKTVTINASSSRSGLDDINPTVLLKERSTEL
Briefly: fluorometric COX-2 inhibition assay (BioVision kit). The experiment is classed as biochemical. The note with it: for COX-2 inhibitory effect compared with personal care ingredients (terpenes): all at 50 μM, FIGS. 4-6; for inhibition at 10 µM / inhibition at 50 µM: read-out: COX-2 Inhibition (%); for inhibition at 12.5 µM: read-out: COX-2 inhibitions (FIG. 5). As to the method: The COX-2 inhibitory effects in FIGS. 4-6 were determined using a fluorometric COX-2 inhibition kit from BioVision Inc. (Mountain View, CA, USA) according to the methods described in COX-2 inhibition assay. The personal care ingredients Lim, Lin, Ner, Myc, α-pin, β-car, and α-bis represent limonene, linalool, nerolidol, myrcene, alpha-pinene, beta-caryophyllene, and alpha-bisabolol, respectively. In FIGS. 5 and 6, MIX represents a composition (or mixture) of CBD, CBG, and BAK at a molar concentration ratio of 1:1:1. MIX 50 μM, MIX 25 μM, and 12.5 μM represent total CBD/CBG/BAK molar concentrations of MIX being 50 μM, 25 μM, and 12.5 μM, respectively. CBD 50 μM represents that CBD is used individually and a molar concentration of CBD is 50 μM.
Materials and methods: the inhibitory effects of test samples (e.g., CBD, CBG, BAK, Mix, a positive control, and/or other compounds and compositions described in the present disclosure) against COX-2 were measured by a fluorometric COX-2 inhibition kit from Cayman Chemicals (Ann Arbor, Michigan, USA) or BioVision Inc. (Mountain View, CA, USA) following the manufacturer's instructions. Briefly, a COX-2 enzyme was reconstituted with 110 μL of sterile distilled H2O and arachidonic acid was dissolved in 55 μL ethanol. COX cofactor was diluted with COX assay buffer for 200 times, and arachidonic acid and NaOH were mixed in a molar ratio of 1:1 before it was diluted for 10 times for further use. COX assay buffer (84 μL), COX probe (1 μL), diluted COX cofactor (2 μL), COX-2 enzyme (1 μL), and test samples (2 μL) were incubated in a 96-well plate at room temperature for 10 min. Next, diluted arachidonic acid/NaOH solution (10 μL) was added to each well of the 96-well plate to initiate the reaction. The fluorescence of each well was recorded at an excitation wavelength of 535 nm and an emission wavelength of 587 nm with a kinetic mode for 10 min using a plate reader (SpectraMax® M2, Molecular Devices Corp., operated by SoftmaxPro® v.4.6 software, Sunnyvale, CA, USA). […] Two points (T1 and T2) in a linear range of a plot related to the recorded fluorescence were used to obtain corresponding fluorescence values (RFU1 and RFU2). Then, a slope for a sample was calculated by dividing a net ΔRFU (RFU2-RFU1) value by the time ΔT (T2-T1). An inhibition (%) of COX-2 of the sample was determined as the following equation: Inhibition (%)=((slope of control−slope of the sample)/slope of control)×100.

For another experiment, the system named is TNF-α. Briefly: suppression of TNF-α in inflammatory model induced by lipopolysaccharides and nigericin. The experiment is classed as cell-based. The note with it: 20 μM; LPS and nigericin model. The protocol: (§1) FIGS. 7 and 8 are bar diagrams illustrating exemplary abilities of CBG, BAK, and a composition (i.e., Mix) of CBD, CBG, and BAK at a molar concentration of 1:1:1 to suppress activities of pro-inflammatory cytokines according to some embodiments of the present disclosure. In FIGS. 7 and 8, Model represents an inflammatory model that was induced by lipopolysaccharides and nigericin. The abilities/functions of CBG, BAK, and Mix to suppress pro-inflammatory cytokines in FIGS. 7 and 8 were measured at a total CBD/CBG/BAK molar concentration of 20 μM. An ability/function to suppress activity of a pro-inflammatory cytokine was reflected by a remaining concentration of the pro-inflammatory cytokine after the reaction. The greater the remaining concentration of the pro-inflammatory cytokine, the worse the ability to suppress activity of the pro-inflammatory cytokine.

For another experiment, the system named is IL-1β. Briefly: suppression of IL-1β in inflammatory model, cell level. Type of experiment: cell-based. The note with it: 20 μM; LPS and nigericin model. The protocol: as §1
FIG. 9 is a bar diagram illustrating exemplary abilities of a composition (i.e., Mix) of CBD, CBG, and BAK at a molar concentration of 1:1:1 at different molar concentrations to suppress activity of […] according to some embodiments of the present disclosure. In FIG. 9, Model represents an inflammatory model which was different from that in FIG. 8. […]

The nature of experiment [2]: antioxidant DPPH assay (free radical scavenging). The following applies: used individually. As to the method:
In some embodiments, the composition may have an antioxidant activity/effect. FIG. 10 is a bar diagram illustrating antioxidant effects of CBD, CBG, and BAK used individually according to some embodiments of the present disclosure. In some embodiments, data in the bar diagram in FIG. 10 was determined (e.g., measured) according to an antioxidant DPPH (i.e., α, α-diphenyl-β-picrylhydrazyl) assay that was well known for the skills in the art. An antioxidant effect was reflected by free radical scavenging after the reaction. The greater the free radical scavenging, the better the antioxidant effect.

The target in experiment [3] is T1, COX-2. Briefly: fluorometric COX-2 inhibition assay (Cayman Chemical kit). Type of experiment: biochemical. The note with it: for inhibition at 50 µM: read-out: COX-2 Inhibition (%); for COX-2 inhibition corresponding to plateau (FIGS. 3A, 3B): after molar concentrations exceeded 10 μM; for COX-2 inhibitory effect (FIG. 1): used individually at 50 μM, 10 μM, 2 μM, 0.04 μM. As to the method:
FIG. 1 is a bar diagram illustrating COX-2 inhibitory effects of CBD and CBG used individually at different molar concentrations according to some embodiments of the present disclosure. Table 1 illustrates COX-2 inhibitory effects of some skincare active components used individually according to some embodiments of the present disclosure. The COX-2 inhibitory effects in FIG. 1 and Table 1 were determined using a fluorometric COX-2 inhibition kit from Cayman Chemical Company (Ann Arbor, Michigan, USA) according to the method of COX-2 inhibition assay as described elsewhere in the present disclosure.
Table 2 illustrates COX-2 inhibitory effects of exemplary compositions of CBD and CBG according to some embodiments of the present disclosure. The COX-2 inhibitory effects in Table 2 were determined using a fluorometric COX-2 inhibition kit from Cayman Chemical Company (Ann Arbor, Michigan, USA) according to the method of COX-2 inhibition assay as described elsewhere in the present disclosure. The compositions A, B, and C in Table 2 may be at 10 μM.
FIG. 2 is a bar diagram illustrating COX-2 inhibitory effects of CBD and CBG used individually and in combination at different molar concentrations according to some embodiments of the present disclosure. The COX-2 inhibitory effects in FIG. 1 and Table 1 were determined using a fluorometric COX-2 inhibition kit from Cayman Chemical Company (Ann Arbor, Michigan, USA) according to the method of COX-2 inhibition assay as described in the present disclosure. In FIG. 2. COMIX represents a composition (or mixture) of CBD, CBG, NMN, BAK, AGE Defense, and RC Bio. Concentrations of CBD, CBG, NMN, BAK, AGE Defense, and RC Bio in COMIX were 10 ug/mL, 2 ug/mL, 2 ug/mL, 2 ug/mL, 2 ug/mL, and 2 ug/mL, respectively. The COX-2 inhibitory effect of COMIX was measured for providing an assay basis for designing subsequent COX-2 inhibition assays. MIX′ represents a composition (or mixture) of CBD and CBG at a molar concentration ratio of 1:1. […] When a total CBD/CBG molar concentration of MIX′ was 0.5 μM, molar concentrations of CBD and CBG in MIX′ were 0.25 μM. Similarly, when a total CBD/CBG molar concentration of MIX′ was 1.0 μM, molar concentrations of CBD and CBG in MIX′were 0.5 μM; when a total CBD/CBG molar concentration of MIX′ was 5 μM, molar concentrations of CBD and CBG in MIX were 2.5 μM; when a total CBD/CBG molar concentration of MIX′ was 10 μM, molar concentrations of CBD and CBG in MIX′ were 5 μM; and when a total CBD/CBG molar concentration of MIX′ was 20 μM, molar concentrations of CBD and CBG in MIX′ were 10.0 μM.
Materials and methods: the inhibitory effects of test samples (e.g., CBD, CBG, BAK, Mix, a positive control, and/or other compounds and compositions described in the present disclosure) against COX-2 were measured by a fluorometric COX-2 inhibition kit from Cayman Chemicals (Ann Arbor, Michigan, USA) or BioVision Inc. (Mountain View, CA, USA) following the manufacturer's instructions. Briefly, a COX-2 enzyme was reconstituted with 110 μL of sterile distilled H2O and arachidonic acid was dissolved in 55 μL ethanol. COX cofactor was diluted with COX assay buffer for 200 times, and arachidonic acid and NaOH were mixed in a molar ratio of 1:1 before it was diluted for 10 times for further use. COX assay buffer (84 μL), COX probe (1 μL), diluted COX cofactor (2 μL), COX-2 enzyme (1 μL), and test samples (2 μL) were incubated in a 96-well plate at room temperature for 10 min. Next, diluted arachidonic acid/NaOH solution (10 μL) was added to each well of the 96-well plate to initiate the reaction.

Regarding `C=C[C@@](C)(/C=C/c1ccc(O)cc1)CCC=C(C)C` [BAK, bakuchiol], at COX-2 [1], the “COX-2 inhibitory effect compared with personal care ingredients (terpenes)” value was “better COX-2 inhibitory effects than the personal care ingredients”, the inhibition at 10 µM was found to be 45%, the inhibition at 50 µM is 67.3% and the inhibition at 12.5 µM is around 60%. Also, the “remaining concentration of TNF-α versus Model (FIG. 7)” value in the experiment with TNF-α was “lower than the remaining concentration of TNF-α corresponding to Model”. Moreover, the “remaining concentration of IL-1β versus Model (FIG. 8)” value in the experiment with IL-1β is reported as “had an activity to suppress activity of IL-113”. Also, in experiment [2], the “antioxidant effect compared with the other compounds (FIG. 10)” value is “better antioxidant effect than CBG and CBG”; the “antioxidant effect, free radical scavenging (FIG. 10)” value is recorded as “had an antioxidant effect”. For the same compound, on COX-2 [3], the inhibition at 50 µM came out at 81.9%.
`C=C(C)[C@@H]1CCC(C)=C[C@H]1c1c(O)cc(CCCCC)cc1O` [CBD, cannabidiol, reference compound]: at COX-2 [1], the “COX-2 inhibitory effect compared with personal care ingredients (terpenes)” value is given as “better COX-2 inhibitory effects than the personal care ingredients”, the inhibition at 10 µM was determined as 42%, the inhibition at 50 µM stood at 52.5% and the inhibition at 12.5 µM is around 60%. Also, the “antioxidant effect, free radical scavenging (FIG. 10)” value in experiment [2] was “had an antioxidant effect”. At COX-2 [3], the “COX-2 inhibition corresponding to plateau (FIGS. 3A, 3B)” value is “about 60%”; the inhibition at 50 µM was found to be 71.9%; the “COX-2 inhibitory effect (FIG. 1)” value is on record as “had a COX-2 inhibitory effect”.
In the case of `CCCCCc1cc(O)c(C/C=C(\C)CCC=C(C)C)c(O)c1` [CBG, cannabigerol], at COX-2 [1], the “COX-2 inhibitory effect compared with personal care ingredients (terpenes)” value is given as “better COX-2 inhibitory effects than the personal care ingredients”, the inhibition at 10 µM came out at 51.9%, the inhibition at 50 µM is 65.7% and the inhibition at 12.5 µM is around 60%. In the experiment on TNF-α, the “remaining concentration of TNF-α versus Model (FIG. 7)” value is listed as “lower than the remaining concentration of TNF-α corresponding to Model”. Further, in the experiment on IL-1β, the “remaining concentration of IL-1β versus Model (FIG. 8)” value is “had an activity to suppress activity of IL-113”. In addition, the “antioxidant effect, free radical scavenging (FIG. 10)” value in experiment [2] is “had an antioxidant effect”. On COX-2 [3], the “COX-2 inhibition corresponding to plateau (FIGS. 3A, 3B)” value is listed as “about 60%”; the inhibition at 50 µM came out at 87.4%; the “COX-2 inhibitory effect (FIG. 1)” value was “had a COX-2 inhibitory effect”.
Regarding `Cn1c(=O)c2c(ncn2C)n(C)c1=O` [Caffeine, caffeine, reference compound], the inhibition at 50 µM on COX-2 [3] turned out to be 63.5%.
Turning to `NC(=O)c1ccc[n+]([C@@H]2O[C@H](COP(=O)([O-])O)[C@@H](O)[C@H]2O)c1` [NMN, nicotinamide mononucleotide], the “COX-2 Inhibition (%)” value at COX-2 [3] (compound used individually at 50 μM) amounted to 19.63%.

The record behind these values is patent US20230398135A1, “COMPOSITIONS INCLUDING CANNABINOID AND USE THEREOF IN THE MANUFACTURE OF A MEDICAMENT FOR THE TREATMENT OF INFLAMMATION IN A SUBJECT” (priority 2022, published 2023).
